In US11419806B2, “Prebiotic oral care methods using a saccharide” (Colgate-Palmolive Company, priority 2013, dated 2022):

Assays:
Format in all cases: cell-based
[1] = test system: beneficial oral bacteria and pathogenic oral bacteria; test: Twenty-four hour optical density, overall prebiotic assessment; conditions: concentrations of 10, 20 and 25 μmol/ml
Excerpt: Substrates that were able to increase the growth (or maximal growth density or extent of growth) of at least one of the above beneficial bacteria while not or only minimally increasing the growth (or maximal growth density) of the pathogenic bacteria are considered to be prebiotic compounds.
The extent of growth of the tested bacteria in response to selected saccharides (myo-inositol, D-lactitol, D-turanose and N-acetyl-D-mannosamine) was investigated by setting up growth curves in a nutritionally rich medium (brain heart infusion broth (BHI), Oxoid), over 24 hours. Late exponential growth phase liquid cultures were prepared by transferring the respective bacterium from blood agar plates to BHI and overnight incubation at 37° C. in an anaerobic atmosphere for A. viscosus, V. parvula, F. nucleatum, P. gingivalis, P. intermedia, T. forsythia, A. naeslundii, and C. sputigena, and in a 5% CO2 environment for S. salivarius, S. sanguinis, S. mitis, A. actinomycetemcomitans, S. mutans, S. sobrinus and S. gordonii. […]
For each combination of bacterium/saccharide, and for each of their respective controls (i.e. the particular bacterium in the nutritionally rich medium with no saccharide), the optical density was measured at 630 nm (OD630) at 0 h and 24 h (Thermo Scientific Multiskan Ascent). Additionally, the OD630 for combinations of bacterium/saccharides grown in a 5% CO2 environment were also measured every hour between 0 h and 9 h.
The experiment was carried out on three different days (thus providing 3 biological replicas) and on each day the experiment was carried out in quadruple (thus providing 4 technical replicas) for each combination of bacterium with saccharide and for each control. For each day and for each combination, the average (mean) of the values obtained (as detailed above) for the four technical replicas was calculated to provide a single value for each combination on each day. […]

[2] = test system: Aggregatibacter actinomycetemcomitans; test: Twenty-four hour optical density growth in BHI; conditions: A actinomycetemcomitans
Streptococcus sobrinus = test: Twenty-four hour optical density growth in BHI; conditions: S sobrinus
Tannerella forsythia = test: Twenty-four hour optical density growth in BHI; conditions: T forsythia
How it was run: (§1)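 OD630 at 0 h and 24 h; BHI, 37° C, anaerobic; inoculum 1×10^7 CFU/ml; myo-inositol, D-lactitol, D-turanose, N-acetyl-D-mannosamine at 5, 10, 20, 25 μmol/ml final; saccharide-free control. 3 biological × 4 technical replicates, mean of daily means.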

Porphyromonas gingivalis = test: Twenty-four hour optical density growth in BHI; conditions: P gingivalis
How it was run: as §1

S. sanguinis = test: Twenty-four hour optical density growth in BHI
Streptococcus gordonii = test: Twenty-four hour optical density growth in BHI; conditions: S gordonii
Streptococcus mutans = test: Twenty-four hour optical density growth in BHI; conditions: for extent of growth: maximal OD630 over 24 hr divided by maximal OD of control (control = 1): S mutans
Veillonella parvula = test: Twenty-four hour optical density growth in BHI; conditions: V parvula
How it was run: as §1

Actinomyces viscosus = test: Twenty-four hour optical density growth in BHI; conditions: A viscosus
How it was run: as §1

Streptococcus salivarius = test: Twenty-four hour optical density growth in BHI; conditions: S salivarius
Streptococcus mitis = test: Twenty-four hour optical density growth in BHI; conditions: S mitis
Capnocytophaga sputigena = test: Twenty-four hour optical density growth in BHI; conditions: C sputigena
How it was run: as §1

Fusobacterium nucleatum = test: Twenty-four hour optical density growth in BHI; conditions: F nucleatum
How it was run: as §1

Prevotella intermedia = test: Twenty-four hour optical density growth in BHI; conditions: P intermedia
How it was run: as §1

Actinomyces naeslundii = test: Twenty-four hour optical density growth in BHI; conditions: A naeslundii
How it was run: as §1

OC[C@@H](O)[C@@H](O[C@H]1O[C@H](CO)[C@H](O)[C@H](O)[C@H]1O)[C@H](O)[C@@H](O)CO [D-Lactitol, 4-O-α-D-galactopyranosyl-D-glucitol]
prebiotic effects (extent of growth, threshold value 1.25) [1]: exhibited prebiotic effects
extent of growth: maximal OD630 over 24 hr divided by maximal OD of control (control = 1) ([2]; 5 μmol/ml): 0.7044
extent of growth: maximal OD630 over 24 hr divided by maximal OD of control (control = 1) ([2]; 10 μmol/ml): 0.7052
extent of growth: maximal OD630 over 24 hr divided by maximal OD of control (control = 1) ([2]; 20 μmol/ml): 0.6952
extent of growth: maximal OD630 over 24 hr divided by maximal OD of control (control = 1) ([2]; 25 μmol/ml): 0.7095
extent of growth: maximal OD630 over 24 hr divided by maximal OD of control (control = 1) (Streptococcus sobrinus; 5 μmol/ml): 1.0650
extent of growth: maximal OD630 over 24 hr divided by maximal OD of control (control = 1) (Streptococcus sobrinus; 10 μmol/ml): 1.0189
extent of growth: maximal OD630 over 24 hr divided by maximal OD of control (control = 1) (Streptococcus sobrinus; 20 μmol/ml): 1.0335
extent of growth: maximal OD630 over 24 hr divided by maximal OD of control (control = 1) (Streptococcus sobrinus; 25 μmol/ml): 1.0163
extent of growth: maximal OD630 over 24 hr divided by maximal OD of control (control = 1) (Tannerella forsythia; 5 μmol/ml): 0.9351
extent of growth: maximal OD630 over 24 hr divided by maximal OD of control (control = 1) (Tannerella forsythia; 10 μmol/ml): 0.9434
extent of growth: maximal OD630 over 24 hr divided by maximal OD of control (control = 1) (Tannerella forsythia; 20 μmol/ml): 0.9426
extent of growth: maximal OD630 over 24 hr divided by maximal OD of control (control = 1) (Tannerella forsythia; 25 μmol/ml): 0.9367
extent of growth: maximal OD630 over 24 hr divided by maximal OD of control (control = 1) (Porphyromonas gingivalis; 5 μmol/ml): 0.9615
extent of growth: maximal OD630 over 24 hr divided by maximal OD of control (control = 1) (Porphyromonas gingivalis; 10 μmol/ml): 0.9989
extent of growth: maximal OD630 over 24 hr divided by maximal OD of control (control = 1) (Porphyromonas gingivalis; 20 μmol/ml): 0.9706
extent of growth: maximal OD630 over 24 hr divided by maximal OD of control (control = 1) (Porphyromonas gingivalis; 25 μmol/ml): 1.0115
extent of growth: maximal OD630 over 24 hr divided by maximal OD of control (control = 1) (S. sanguinis; 5 μmol/ml): 0.8901
extent of growth: maximal OD630 over 24 hr divided by maximal OD of control (control = 1) (S. sanguinis; 10 μmol/ml): 0.9323
extent of growth: maximal OD630 over 24 hr divided by maximal OD of control (control = 1) (S. sanguinis; 20 μmol/ml): 0.9356
extent of growth: maximal OD630 over 24 hr divided by maximal OD of control (control = 1) (S. sanguinis; 25 μmol/ml): 0.9393
extent of growth: maximal OD630 over 24 hr divided by maximal OD of control (control = 1) (Streptococcus gordonii; 5 μmol/ml): 0.9828
extent of growth: maximal OD630 over 24 hr divided by maximal OD of control (control = 1) (Streptococcus gordonii; 10 μmol/ml): 0.9945
extent of growth: maximal OD630 over 24 hr divided by maximal OD of control (control = 1) (Streptococcus gordonii; 20 μmol/ml): 0.9931
extent of growth: maximal OD630 over 24 hr divided by maximal OD of control (control = 1) (Streptococcus gordonii; 25 μmol/ml): 1.0101
stimulation of growth of S. mutans (Streptococcus mutans; Example 2): does not stimulate growth
extent of growth: maximal OD630 over 24 hr divided by maximal OD of control (control = 1) (Streptococcus mutans; 5 μmol/ml): 0.9466
extent of growth: maximal OD630 over 24 hr divided by maximal OD of control (control = 1) (Streptococcus mutans; 10 μmol/ml): 0.9230
extent of growth: maximal OD630 over 24 hr divided by maximal OD of control (control = 1) (Streptococcus mutans; 20 μmol/ml): 0.9036
extent of growth: maximal OD630 over 24 hr divided by maximal OD of control (control = 1) (Streptococcus mutans; 25 μmol/ml): 0.9149
extent of growth: maximal OD630 over 24 hr divided by maximal OD of control (control = 1) (Veillonella parvula; 5 μmol/ml): 0.8722
extent of growth: maximal OD630 over 24 hr divided by maximal OD of control (control = 1) (Veillonella parvula; 10 μmol/ml): 0.8854
extent of growth: maximal OD630 over 24 hr divided by maximal OD of control (control = 1) (Veillonella parvula; 20 μmol/ml): 0.8909
extent of growth: maximal OD630 over 24 hr divided by maximal OD of control (control = 1) (Veillonella parvula; 25 μmol/ml): 0.9054
extent of growth: maximal OD630 over 24 hr divided by maximal OD of control (control = 1) (Actinomyces viscosus; 5 μmol/ml): 0.8614
extent of growth: maximal OD630 over 24 hr divided by maximal OD of control (control = 1) (Actinomyces viscosus; 10 μmol/ml): 0.9554
extent of growth: maximal OD630 over 24 hr divided by maximal OD of control (control = 1) (Actinomyces viscosus; 20 μmol/ml): 1.0275
extent of growth: maximal OD630 over 24 hr divided by maximal OD of control (control = 1) (Actinomyces viscosus; 25 μmol/ml): 1.0300
extent of growth: maximal OD630 over 24 hr divided by maximal OD of control (control = 1) (Streptococcus salivarius; 5 μmol/ml): 1.1349
extent of growth: maximal OD630 over 24 hr divided by maximal OD of control (control = 1) (Streptococcus salivarius; 10 μmol/ml): 1.3489
extent of growth: maximal OD630 over 24 hr divided by maximal OD of control (control = 1) (Streptococcus salivarius; 20 μmol/ml): 1.3431
extent of growth: maximal OD630 over 24 hr divided by maximal OD of control (control = 1) (Streptococcus salivarius; 25 μmol/ml): 1.3159
extent of growth: maximal OD630 over 24 hr divided by maximal OD of control (control = 1) (Streptococcus mitis; 5 μmol/ml): 0.8694
extent of growth: maximal OD630 over 24 hr divided by maximal OD of control (control = 1) (Streptococcus mitis; 10 μmol/ml): 0.9020
extent of growth: maximal OD630 over 24 hr divided by maximal OD of control (control = 1) (Streptococcus mitis; 20 μmol/ml): 0.9151
extent of growth: maximal OD630 over 24 hr divided by maximal OD of control (control = 1) (Streptococcus mitis; 25 μmol/ml): 0.8839
extent of growth: maximal OD630 over 24 hr divided by maximal OD of control (control = 1) (Capnocytophaga sputigena; 5 μmol/ml): 0.8996
extent of growth: maximal OD630 over 24 hr divided by maximal OD of control (control = 1) (Capnocytophaga sputigena; 10 μmol/ml): 0.8742
extent of growth: maximal OD630 over 24 hr divided by maximal OD of control (control = 1) (Capnocytophaga sputigena; 20 μmol/ml): 0.8416
extent of growth: maximal OD630 over 24 hr divided by maximal OD of control (control = 1) (Capnocytophaga sputigena; 25 μmol/ml): 0.8337
extent of growth: maximal OD630 over 24 hr divided by maximal OD of control (control = 1) (Fusobacterium nucleatum; 5 μmol/ml): 0.9876
extent of growth: maximal OD630 over 24 hr divided by maximal OD of control (control = 1) (Fusobacterium nucleatum; 10 μmol/ml): 0.9482
extent of growth: maximal OD630 over 24 hr divided by maximal OD of control (control = 1) (Fusobacterium nucleatum; 20 μmol/ml): 0.9034
extent of growth: maximal OD630 over 24 hr divided by maximal OD of control (control = 1) (Fusobacterium nucleatum; 25 μmol/ml): 0.8805
extent of growth: maximal OD630 over 24 hr divided by maximal OD of control (control = 1) (Prevotella intermedia; 5 μmol/ml): 0.9178
extent of growth: maximal OD630 over 24 hr divided by maximal OD of control (control = 1) (Prevotella intermedia; 10 μmol/ml): 0.9210
extent of growth: maximal OD630 over 24 hr divided by maximal OD of control (control = 1) (Prevotella intermedia; 20 μmol/ml): 0.9185
extent of growth: maximal OD630 over 24 hr divided by maximal OD of control (control = 1) (Prevotella intermedia; 25 μmol/ml): 0.9036
extent of growth: maximal OD630 over 24 hr divided by maximal OD of control (control = 1) (Actinomyces naeslundii; 5 μmol/ml): 1.0156
extent of growth: maximal OD630 over 24 hr divided by maximal OD of control (control = 1) (Actinomyces naeslundii; 10 μmol/ml): 1.0334
extent of growth: maximal OD630 over 24 hr divided by maximal OD of control (control = 1) (Actinomyces naeslundii; 20 μmol/ml): 1.0688
extent of growth: maximal OD630 over 24 hr divided by maximal OD of control (control = 1) (Actinomyces naeslundii; 25 μmol/ml): 1.0686
